Source: PubChem BioAssay (NCI)
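GI50 marks 50% less growth. TGI marks complete inhibition of growth.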

What was measured:
Assay in all cases: growth of human tumour cells (NCI), 384-well format
SN12C renal = tested on: SN12C renal
MDA-MB-468 breast = tested on: MDA-MB-468 breast
HS 578T breast = tested on: HS 578T breast
KM12 colon = tested on: KM12 colon
UACC-257 melanoma = tested on: UACC-257 melanoma
ACHN renal = tested on: ACHN renal
SK-MEL-28 melanoma = tested on: SK-MEL-28 melanoma
RXF 393 renal = tested on: RXF 393 renal
SF-295 CNS = tested on: SF-295 CNS
U251 glioblastoma = tested on: U251 glioblastoma
SR leukemia = tested on: SR leukemia
IGROV1 ovarian = tested on: IGROV1 ovarian
SF-539 CNS = tested on: SF-539 CNS

COc1cc(C)[nH]c(=O)c1CNC(=O)c1c(C)n([C@H](C)C2CCN(CC(F)(F)F)CC2)c2ccccc12
GI50 (SN12C renal): > 80.5 µM | TGI (SN12C renal): > 100 µM | GI50 (MDA-MB-468 breast): 21.4 µM | TGI (MDA-MB-468 breast): 51.3 µM | GI50 (HS 578T breast): 40.1 µM | TGI (HS 578T breast): > 100 µM | GI50 (KM12 colon): 53.8 µM | TGI (KM12 colon): > 100 µM | GI50 (UACC-257 melanoma): 50.3 µM | TGI (UACC-257 melanoma): > 100 µM | GI50 (ACHN renal): 45.4 µM | TGI (ACHN renal): > 100 µM | GI50 (SK-MEL-28 melanoma): 98.2 µM | TGI (SK-MEL-28 melanoma): > 100 µM | GI50 (RXF 393 renal): 28.3 µM | TGI (RXF 393 renal): 79.7 µM | GI50 (SF-295 CNS): 76.6 µM | TGI (SF-295 CNS): > 100 µM | GI50 (U251 glioblastoma): 98 µM | TGI (U251 glioblastoma): > 100 µM | GI50 (SR leukemia): 21.5 µM | TGI (SR leukemia): 76.5 µM | GI50 (IGROV1 ovarian): 44.1 µM | TGI (IGROV1 ovarian): > 100 µM | GI50 (SF-539 CNS): > 100 µM | TGI (SF-539 CNS): > 100 µM
